Data reported in publication PMC4450297, “Screening Active Compounds from Garcinia Species Native to China Reveals Novel Compounds Targeting the STAT/JAK Signaling Pathway” (BioMed Research International, 2015).

Assays:
[1] = system: STAT3 activation in multiple cancer cell lines; parameters: method as in PMID 21490133; settings: cited from earlier work
[2] = system: NCI-H1650; experiment: Cell proliferation assay (CellTiter-Glo); assay type: cell-based, human; settings: Homo sapiens, NCI-H1650, 72 h, NCI-H1650 cells, 20 μM to 0.009 μM in serial 3-fold dilutions
Description: (§1) All cells were obtained from the cell bank of the American Type Culture Collection (ATCC) and cultured in the supplier's recommended media supplemented with 10% FBS. The cell panel screen was measured using the CellTiter-Glo assay (Promega, Madison, WI) following a standard protocol. Briefly, cancer cells were seeded in 96-well plates and cultured overnight at 37°C with or without 5% CO2 in an incubator. Each compound was dissolved with limited DMSO and diluted to a certain concentration with culture medium and then added to the corresponding well of the cell plate. The final concentration of compound was 20 μM. The control cells (without treatment) received the same amount of DMSO and were incubated under the same conditions. After 72 h cultivation, 100 μL of the CellTiter-Glo reagent was added directly to each well for 10-minute incubation. The plate was then read on a FlexStation 3 microplate luminometer (Molecular Devices, USA) to monitor the luminescence signal generated by the luciferase-catalyzed reaction of luciferin and ATP. The percent of growth inhibition was calculated using the following formula: (untreated cells − treated cells)/(untreated cells − background without cells) ∗ 100.
(§2) For proliferation assays, the CellTiter-Glo assay (Promega, Madison, WI) was used to evaluate the proliferation of cancer cells treated with test compounds as described above. Each compound was dissolved in limited DMSO and diluted to various concentrations with culture medium and then added to the corresponding wells. A dose-response curve was plotted, and the IC50 was calculated using XLfit software.

[3] = system: A549; experiment: Cell proliferation assay (CellTiter-Glo); assay type: cell-based; settings: Homo sapiens, A549 cells, 72 h
Description: as §1, §2

[4] = system: CHP212; experiment: Cell proliferation assay (CellTiter-Glo); assay type: cell-based; settings: Homo sapiens, CHP-212, CHP212 cells, 72 h
Description: as §1, §2

[5] = system: NCI-H1993; experiment: Cell proliferation assay (CellTiter-Glo); assay type: cell-based; settings: Homo sapiens, NCI-H1993 cells, 72 h
Description: as §1, §2

[6] = system: NCI-H838; experiment: Cell proliferation assay (CellTiter-Glo); assay type: cell-based; settings: Homo sapiens, NCI-H838 cells, 72 h
Description: as §1, §2

[7] = system: SW1353; experiment: Cell proliferation assay (CellTiter-Glo); assay type: cell-based; settings: Homo sapiens, SW1353 cells, 72 h
Description: as §1, §2

[8] = system: SW954; experiment: Cell proliferation assay (CellTiter-Glo); assay type: cell-based; settings: Homo sapiens, SW 954, SW954 cells, 72 h
Description: as §1, §2

[9] = system: HuVec; experiment: Cell proliferation assay (CellTiter-Glo), control cell line; assay type: cell-based; settings: Homo sapiens, 72 h
Description: as §1, §2

| Compound | STAT3 activation upon IL-6 treatment [1] | IC50 [2] [nM] | IC50 [3] [nM] | IC50 [4] [nM] | IC50 [5] [nM] | IC50 [6] [nM] | IC50 [7] [nM] | IC50 [8] [nM] | IC50 [9] [nM] |
| --- | --- | --- | --- | --- | --- | --- | --- | --- | --- |
| CC(C)=CCC[C@]1(C)C=Cc2c(O)c3c(c(CC=C(C)C)c2O1)O[C@]12C(=C[C@@H]4C[C@H]1C(C)(C)O[C@@]2(C/C=C(/C)C(=O)O)C4=O)C3=O [gambogic acid] | able to inhibit STAT3 activation | – | – | – | – | – | – | – | – |
| CN[C@@H]1C[C@H]2O[C@@](C)([C@@H]1OC)n1c3ccccc3c3c4c(c5c6ccccc6n2c5c31)C(=O)NC4 [Staurosporine, staurosporine, reference compound] | – | 22 ± 4 | 8 ± 2 | 4 ± 1 | 21 ± 7 | 11 ± 4 | 4 ± 1 | 6 ± 1 | 4 ± 2 |
